Results as given in patent US20250041327A1, “COMPOSITIONS FOR PREVENTING OR FOR REDUCING RISK OF […] INFECTIOUS DISEASES” (priority 2021, published 2025).

What was measured:
[1] = test system: ICAM-1; type: cell-based, human; conditions: infected A549 cells, 1×10^5 pfu virus; BXA 250 nM
[2] = test system: occludin; type: cell-based, human; conditions: A549 cells, EPS pre-treatment study; BXA 250 nM; viral-infection vs non-viral infection group
[3] = test system: fibronectin; type: cell-based, human; conditions: infected A549 cells, 1×10^5 pfu virus; BXA 250 nM
[4] = test system: ZO-1; type: cell-based, human; conditions: A549 cells, EPS pre-treatment study; BXA 250 nM; viral-infection vs non-viral infection group
[5] = test system: E-cadherin; type: cell-based, human; conditions: A549 cells, EPS pre-treatment study; BXA 250 nM; viral-infection vs non-viral infection group
[6] = test system: E-selectin; type: cell-based, human; conditions: infected A549 cells, 1×10^5 pfu virus; BXA 250 nM
[7] = test system: claudin-1; type: cell-based, human; conditions: A549 cells, EPS pre-treatment study; BXA 250 nM; viral-infection vs non-viral infection group
[8] = test system: CEACAM-1; test: CEACAM-1 mRNA expression in virus-infected A549 cells (quantitative RT-PCR); conditions: 1×10^5 pfu virus, 1 hour with EPS then 6 hours, BXA 250 nM, compared with virus-infected cells
[9] = test system: S. aureus strain ATCC 29213; type: cell-based; conditions: 1×10^5 pfu virus, 1×10^5 cfu S. aureus for 1 hour; 400 μg EPS or 250 nM BXA per well; compared with virus-infected cells without treatment
[10] = test system: PAF-r; type: cell-based, human; conditions: infected A549 cells, 1×10^5 pfu virus; BXA 250 nM
[11] = test system: VCAM-1; type: cell-based, human; conditions: infected A549 cells, 1×10^5 pfu virus; BXA 250 nM

## O=C1c2c(O)c(=O)ccn2N([C@@H]2c3ccccc3SCc3c2ccc(F)c3F)[C@@H]2COCCN12 [BXA, baloxavir acid]
[1]
  ICAM-1 mRNA expression: not changed
[2]
  occludin mRNA expression: no difference
[3]
  fibronectin mRNA expression: not changed
[4]
  ZO-1 mRNA expression: no difference
[5]
  E-cadherin mRNA expression: no difference
[6]
  E-selectin mRNA expression: not changed
[7]
  claudin-1 mRNA expression: no difference
[8]
  CEACAM-1 mRNA expression increased by influenza virus infection: significantly reduced
[9]
  numbers of adhered bacteria on virus-infected A549 cells: did not decrease
[10]
  PAF-r mRNA expression: not changed
[11]
  VCAM-1 mRNA expression: not changed
